Results taken from US20260165323A1, “USE OF STROBILURIN TYPE COMPOUNDS FOR COMBATING PHYTOPATHOGENIC FUNGI CONTAINING AN AMINO ACID SUBSTITUTION F129L IN THE MITOCHONDRIAL CYTOCHROME B PROTEIN CONFERRING RESISTANCE TO QO […]” (priority 2022, published 2026).

Experiments:
Type in all cases: in vivo
[1] = test system: Puccinia recondita; test: Use Example 3: curative control of brown rust on wheat (PUCCRT K4); conditions: % diseased leaf area
Procedure: The compound was dissolved in a mixture of acetone and/or dimethylsulfoxide and the wetting agent/emulsifier Wettol, which is based on ethoxylated alkylphenoles, in a ratio (volume) solvent-emulsifier of 99 to 1 to give a total volume of 5 ml. Subsequently, water was added to total volume of 100 ml. This stock solution was then diluted with the described solvent-emulsifier-water mixture to the final concentration given in the tables below.
Use Example 3. Curative Control of Brown Rust on Wheat Caused by Puccinia recondita (PUCCRT K4)
The first two developed leaves of potted wheat seedling were dusted with spores of Puccinia recondita. To ensure the success the artificial inoculation, the plants were transferred to a humid chamber without light and a relative humidity of 95 to 99% and 20 to 24° C. for 24 h. The next 3 days the plants were cultivated in a greenhouse chamber at 20 to 24° C. and a relative humidity between 65 and 70%. Then the plants were sprayed to run-off with previously described spray solution, containing the concentration of active ingredient or their mixture as described below. The plants were allowed to air-dry. Then the trial plants were cultivated for 5 to 7 days in a greenhouse chamber at 20 to 24° C. and a relative humidity between 65 and 70%. The extent of fungal attack on the leaves was visually assessed as % diseased leaf area, the disease level of untreated controls was usually between 80 and 100%.

[2] = test system: Phakopsora pachyrhizi containing the amino acid substitution F129L in the mitochondrial cytochrome b protein; test: Use Example 1: protective control of soybean rust on soybeans (PHAKPA P2); conditions: inoculated 2 days after spraying, % diseased leaf area
Procedure, shortened: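 Protective test: plants were inoculated with the F129L cytochrome b rust strain 2 days after spraying to run-off, then held 24 h humid (~95% RH, 20-24° C) and up to 14 days at 23-27° C, 60-80% RH. Readout was visually assessed percent diseased leaf area.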

[3] = test system: Puccinia recondita; test: Use Example 4: preventative control of brown rust on wheat (PUCCRT P7); conditions: inoculated seven days after spraying, % diseased leaf area
Procedure, shortened: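 Preventative test: Puccinia recondita spores dusted onto wheat seedlings seven days after spraying their first two leaves to run-off with the formulated compound. After 24 h humid dark incubation at 20–24 °C and 9–11 days of greenhouse growth at 65–70% RH, infection rated visually as % diseased leaf area.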

[4] = test system: Phakopsora pachyrhizi containing the amino acid substitution F129L in the mitochondrial cytochrome b protein; test: Use Example 2: protective control of soybean rust on soybeans (PHAKPA P6); conditions: inoculated six days after spraying, % diseased leaf area
Procedure, shortened: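 Disease was rated visually as % diseased leaf area up to 14 days after inoculation (23–27°C, 60–80% RH). Inoculum was P. pachyrhizi carrying cytochrome b F129L, followed by 24 h in a humid chamber (~95% RH). Inoculation came six days after protective spraying of seedlings with compound in acetone/DMSO–Wettol–water.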

SMILES | % PUCCRT Disease level K4 at 4 ppm [1] [%] | % PUCCRT Disease level K4 at 16 ppm [1] [%] | % PHAKPA (F129L) Disease level P2 at 4 ppm [2] [%] | % PHAKPA (F129L) Disease level P2 at 16 ppm [2] [%] | % PUCCRT Disease level P7 at 4 ppm [3] [%] | % PUCCRT Disease level P7 at 16 ppm [3] [%] | % PHAKPA (F129L) Disease level P6 at 4 ppm [4] [%] | % PHAKPA (F129L) Disease level P6 at 16 ppm [4] [%]
CCOC/C(=N\OCc1c(Cl)cccc1/C(=C\OC)C(=O)OC)c1cccc(F)c1 [compound 27] | 57 | 12 | 5 | 0 | 40 | 7 | 17 | 1
COC/C(=N\OCc1c(Cl)cccc1/C(=N\OC)C(=O)OC)c1c(F)cc(F)cc1F [compound 28] | 75 | 77 | 67 | 13 | 57 | 4 | 85 | 27
CCOC/C(=N\OCc1c(Cl)cccc1/C(=C\OC)C(=O)OC)c1c(F)cc(F)cc1F [compound 30] | 77 | 35 | 7 | 0 | 80 | 37 | 25 | 5
CCOC/C(=N\OCc1c(Cl)cccc1/C(=N\OC)C(=O)NC)c1c(F)cc(F)cc1F [compound 32] | 77 | 57 | 12 | 0 | 53 | 30 | 33 | 1
CCOC/C(=N\OCc1c(Cl)cccc1/C(=N\OC)C(=O)OC)c1cccc(Cl)c1 [compound 33] | 73 | 73 | 93 | 67 | 65 | 35 | 75 | 72
CO/C=C(/C(=O)OC)c1cccc(Cl)c1CO/N=C(\COC)c1ccc(Cl)cc1 [compound 35] | 73 | 7 | 16 | 1 | 14 | 0 | 30 | 4
CCOC/C(=N\OCc1c(Cl)cccc1/C(=C\OC)C(=O)OC)c1cccc(Cl)c1 [compound 38] | 50 | 8 | 23 | 3 | 20 | 2 | 50 | 6
CO/C=C(/C(=O)OC)c1cccc(Cl)c1CO/N=C(\COC)c1cccc(Cl)c1 [compound 39] | 9 | 1 | 2 | 0 | 3 | 0 | 10 | 1
CCOC/C(=N\OCc1c(Cl)cccc1/C(=N\OC)C(=O)NC)c1cccc(Cl)c1 [compound 40] | 73 | 40 | 15 | 1 | 30 | 4 | 33 | 4
CNC(=O)/C(=N/OC)c1cccc(Cl)c1CO/N=C(\COC)c1cccc(F)c1 [compound 41] | 72 | 12 | 3 | 0 | 23 | 4 | 14 | 1
CCOC/C(=N\OCc1c(Cl)cccc1/C(=N\OC)C(=O)NC)c1cccc(F)c1 [compound 42] | 70 | 42 | 11 | 0 | 62 | 12 | 32 | 4
CNC(=O)/C(=N/OC)c1cccc(Cl)c1CO/N=C(\COC)c1cccc(Cl)c1 [compound 43] | 72 | 10 | 6 | 0 | 10 | 3 | 20 | 2
CCOC/C(=N\OCc1c(Cl)cccc1/C(=N\OC)C(=O)OC)c1ccc(Cl)cc1 [compound 44] | 75 | 73 | 95 | 55 | 77 | 37 | 80 | 68
CCOC/C(=N\OCc1c(Cl)cccc1/C(=C\OC)C(=O)OC)c1ccc(Cl)cc1 [compound 45] | 80 | 68 | 60 | 8 | 82 | 27 | 70 | 15
CCOC/C(=N\OCc1c(Cl)cccc1/C(=N\OC)C(=O)NC)c1ccc(Cl)cc1 [compound 46] | 67 | 38 | 80 | 20 | 60 | 10 | 68 | 16
CCOC/C(=N\OCc1c(Cl)cccc1/C(=N\OC)C(=O)NC)c1ccc(F)cc1 [compound 48] | 77 | 50 | 80 | 7 | 63 | 17 | 80 | 17
CNC(=O)/C(=N/OC)c1cccc(Cl)c1CO/N=C(\COC)c1ccccc1Cl [compound 50] | 75 | 72 | 92 | 32 | 70 | 33 | 87 | 36
